Data on eleven compounds can be found in patent US20240409536A1, “COMPOUNDS AND METHODS FOR MODULATING SPLICING” (REMIX THERAPEUTICS INC., priority 2021, published 2024).

Test [1] has as its system HTT mRNA. As to the kind of experiment: Gene panel canonical junction qPCR assay, HTT CJ mRNA decrease. The class given is cell-based, human. The procedure: (§1) Compounds described herein were used to modulate RNA transcript abundance in cells. The expression of a target mRNA was measured by detecting the formation of an exon-exon junction in the canonical transcript (CJ). A compound mediated exon-inclusion event was detected by observing an increase in formation of a new junction with an alternative exon (AJ). Real-time qPCR assays were used to detect these splicing switches and interrogate the potency of various compounds towards different target genes. A high-throughput real time quantitative PCR (RT-qPCR) assay was developed to measure these two isoforms of the mRNA (CJ and AJ) for exemplary genes, such as HTT, SMN2, and MYB, together with a control housekeeping gene, GAPDH or GUSB or PPIA, used for normalization. Briefly, the A673 or K562 cell line was treated with various compounds described herein (e.g., compounds of Formula (I), (I), or (III)). After treatment, the levels of the HTT, MYB, or SMN2 mRNA targets were determined from each sample of cell lysate by cDNA synthesis followed by qPCR.
(§2) The data analysis was performed by first determining the ΔCt vs the housekeeper gene. This ΔCt was then normalized against the DMSO control (ΔΔCt) and converted to RQ (relative quantification) using the 2^(−ΔΔCt) equation. The RQ were then converted to a percentage response by arbitrarily setting an assay window of 3.5 and 4.0 ΔCt for HTT-CJ and MYB-CJ respectively and an assay window of 9 and 3 ΔCt for HTT-AJ and MYB-AJ in 96 well format (50,000 K562 cells/well and 15,000 A673 cells per well) and an assay window of 3 and 4 ΔCt for HTT-CJ and MYB-CJ respectively and an assay window of 5 and 3 ΔCt for HTT-AJ and MYB-AJ respectively in 384 well format (8,000 K562 cells/well example). […] The percentage response was then fitted to the 4 parametric logistic equation to evaluate the concentration dependence of compound treatment. The increase in AJ mRNA is reported as AC50 (compound concentration having […] in AJ increase) while the decrease in CJ mRNA levels is reported as IC50 (compound concentration having 50) response in CJ decrease).
(§3) Additional studies were carried out for a larger panel of genes using the protocol provided above. The junction between flanking upstream and downstream exons was used to design canonical junction qPCR assays. At least one of the forward primer, reverse primer or the CY5-labeled 5′ nuclease probe (with 3′ quencher such as ZEN/Iowa Black FQ) was designed to overlap with the exon junction to capture the CJ mRNA transcript. BLAST was used to confirm the specificity of the probeset and parameters such as melting temperature, GC content, amplicon size, and primer dimer formation are considered during their design. Data for the decrease in CJ mRNA levels for four exemplary genes (HTT, SMN2, MYB, and Target C) analyzed in this panel are reported as IC50 (compound concentration having […] in CJ decrease).
(§4) A summary of the results from the panel is illustrated in Tables 5A and 51B, wherein “A” represents an IC50 of less than 100 nM; “B” represents an IC50 of between 100 nM and 1 μM; and “C” represents an IC50 of between 1 μM and 10 μM; and “D” represents an IC50 of greater than 10 μM.
(Quantitative PCR measures a nucleic acid by following its amplification.)

For test [2], the system named is MYB mRNA. As to the kind of experiment: Gene panel canonical junction qPCR assay, MYB CJ mRNA decrease. The class given is cell-based, human. Here is the method:
as §1, §2, §3, §4

Another test concerns SMN2 mRNA. The test is described as follows: Gene panel canonical junction qPCR assay, SMN2 CJ mRNA decrease. Format: cell-based, human. The procedure:
as §1, §2, §3, §4

Test [3] deals with HTT mRNA. The test is described as follows: Splicing RT-qPCR assay, HTT canonical (CJ) and alternative (AJ) junction mRNA. Format: cell-based. To be noted: Homo sapiens, A673 or K562 cells, 24 hours. The procedure: as §1
(§5) • Cells-to-CT 1-step kit: ThermoFisher A25602, Cells-to-CT lysis reagent: ThermoFisher 4391851C, TaqMan™ Fast Virus 1-Step Master Mix: ThermoFisher 4444436 • GAPDH: VIC-PL, ThermoFisher 4326317E (Assay: Hs99999905_ml)—used for K562/suspension cell lines • GUSB: VIC-PL, ThermoFisher 4326320E (Assay: Hs99999908_ml)—used for K562/suspension cell lines • PPIA: VIC-PL, ThermoFisher 4326316E (Assay: Hs99999904_ml)—used for A673/adherent cell lines
(§6) The A673 cell line was cultured in DMEM with 10% FBS. Cells were diluted with full growth media and plated in a 96-well plate (15,000 cells in 100 ul media per well). The plate was incubated at 37° C. with 5% CO2 for 24 hours to allow cells to adhere. An 11-point 3-fold serial dilution of the compounds was made in DMSO then diluted in media in an intermediate plate. Compounds were transferred from the intermediate plate to the cell plate with the top dose at a final concentration of 10 uM in the well. Final DMSO concentration was kept at or below 0.25%. The cell plate was returned to the incubator at 37° C. with 5% CO2 for an additional 24 hours.
(§7) The K562 cell line was cultured in IMDM with 10% FBS. For K562, cells were diluted with full growth media and plated in either a 96-well plate (50,000 cells in 50 uL media per well) or a 384-well plate (8,000-40,000 cells in 45 uL media per well). An 11-point 3-fold serial dilution of the compounds were made in DMSO then diluted in media in an intermediate plate. Compound was transferred from the intermediate plate to the cell plate with the top dose at a final concentration of 10 uM in the well. Final DMSO concentration was kept at or below 0.25%. Final volume was 100 uL for 96-well plate and 50 uL for 384-well plate. The cell plate was then placed in an incubator at 37° C. with 5% CO2 for 24 hours.
(§8) The cells were then gently washed with 50 uL-100 uL cold PBS before proceeding to addition of lysis buffer. 30 uL-50 uL of room temperature lysis buffer with DNAse I (and optionally RNAsin) was added to each well. Cells were shaken/mixed thoroughly at room temperature for 5-10 minutes for lysis to take place and then 3 uL-5 uL of room temperature stop solution was added and wells were shaken/mixed again. After 2-5 minutes, the cell lysate plate was transferred to ice for RT-qPCR reaction setup. The lysates could also be frozen at −80° C. for later use.
(§9) In some cases, a direct lysis buffer was used. An appropriate volume of 3×lysis buffer (10 mM Tris, 150 mM NaCl, 1.5%-2.5% Igepal and 0.1-1 U/uL RNAsin, pH 7.4) was directly added to either K562 or A673 cells in media and mixed by pipetting 3 times. The plates were then incubated at room temperature with shaking/rocking for 20-50 minutes to allow for lysis to take place. After this time, the cell lysate plate was transferred to ice to set up for the RT-qPCR reactions. The lysates could also be frozen at −80° C. for later use. […]

Test [4] has as its system MYB mRNA. As to the kind of experiment: Splicing RT-qPCR assay, MYB canonical (CJ) and alternative (AJ) junction mRNA. The class given is cell-based. As to conditions: Homo sapiens, A673 or K562 cells, 24 hours. The procedure:
as §1, §5, §6, §7, §8, §9

A further test deals with Target C mRNA. The test is described as follows: Gene panel canonical junction qPCR assay, Target C CJ mRNA decrease. Format: cell-based. As to conditions: Homo sapiens, decrease in CJ mRNA levels, read-out: Target C IC50. Here is the method:
as §1, §2, §3, §4

Where [5] appears, read: decrease in canonical junction mRNA.
[6] abbreviates: increase in alternative junction mRNA.
Setting [7] is: Homo sapiens, decrease in CJ mRNA levels, read-out: HTT IC50.
[8] abbreviates: Homo sapiens, decrease in CJ mRNA levels, read-out: MYB IC50.
The mark [9] stands for this setting: Homo sapiens, decrease in CJ mRNA levels, read-out: SMN2 IC50.

One may read the IC50 as the midpoint of a concentration-inhibition curve. The AC50 is the concentration giving half of the maximal activity seen. A lower AC50 goes with activity at low concentration.

Each structure is given as a SMILES string. Read-outs that look alike come from different tables or passages of the source.

As to `Cc1cn2cc(NC(=O)c3ccc(N4CCN(C)C(C)C4)c4ccnnc34)cc(F)c2n1` (centres unmarked) [Compound 129], the half-maximal inhibitory concentration (IC50) with HTT mRNA [1] (Homo sapiens, canonical junction qPCR, read-out: HTT IC50 (decrease in CJ mRNA levels)) was 1 to 10 µM; in the test on MYB mRNA [2] (Homo sapiens, canonical junction qPCR, read-out: MYB IC50 (decrease in CJ mRNA levels)) it was 0.1 to 1 µM; in the test on SMN2 mRNA (Homo sapiens, canonical junction qPCR, read-out: SMN2 IC50 (decrease in CJ mRNA levels)), < 0.1 µM; in the test on HTT mRNA [3] (setting [5]), 1 to 10 µM; with MYB mRNA [4] (setting [5]) it was 0.1 to 1 µM. Also, the results for the AC50 with HTT mRNA [3] (setting [6]) and with MYB mRNA [4] (setting [6]) were 1 to 10 µM and 0.1 to 1 µM, respectively.
Take `Cc1cn2nc(NC(=O)c3sc([C@@H]4CCN[C@H](C)C4)cc3F)cc(C)c2n1` [Compound 576]: the IC50 in the test on HTT mRNA [1] (setting [7]) was 0.1 to 1 µM; with MYB mRNA [2] (setting [8]), < 0.1 µM; in the test with SMN2 mRNA (setting [9]) it was 0.1 to 1 µM; in the test on Target C mRNA, 0.1 to 1 µM.
For the compound `Cc1cn2cc(NC(=O)c3sc([C@H]4CCN[C@@H](C)C4)cc3F)cc(F)c2n1` [Compound 590], the IC50 in the test with HTT mRNA [1] (setting [7]), in the test with MYB mRNA [2] (setting [8]) and with Target C mRNA was 0.1 to 1 µM throughout.
Consider `COc1cc(N2CCNC(C)C2)sc1C(=O)Nc1cc(F)c2nc(C)cn2c1` (centres unmarked) [Compound 597], for which the IC50 in the test on HTT mRNA [1] (setting [7]) is > 10 µM; with MYB mRNA [2] (setting [8]), 0.1 to 1 µM; in the test on Target C mRNA, > 10 µM.
For the compound `Cc1cn2cc(NC(=O)c3sc(N4CCNC(C)C4)cc3F)cc(F)c2n1` (centres unmarked) [Compound 601], the figures for the IC50 in the test on HTT mRNA [1] (setting [7]), in the test on MYB mRNA [2] (setting [8]) and with Target C mRNA were 1 to 10 µM, 0.1 to 1 µM and 1 to 10 µM, respectively.
`CCC1CN(c2cc(F)c(C(=O)Nc3cc(F)c4nc(C)cn4c3)s2)CCN1` (centres unmarked) [Compound 603]: the IC50 is 1 to 10 µM in the test on HTT mRNA [1] (setting [7]), 0.1 to 1 µM in the test on MYB mRNA [2] (setting [8]) and > 10 µM in the test with Target C mRNA.
Consider `Cc1cn2cc(NC(=O)c3sc(N4C[C@H]5CC[C@@H](C4)N5)cc3F)cc(F)c2n1` [Compound 616], for which the IC50 was > 10 µM with HTT mRNA [1] (setting [7]), 1 to 10 µM in the test on MYB mRNA [2] (setting [8]) and > 10 µM in the test on SMN2 mRNA (setting [9]).
Regarding `Cc1cn2cc(NC(=O)c3sc(C4C[C@@H](C)N[C@@H](C)C4)cc3F)cc(F)c2n1` (some centres unmarked) [Compound 620], the values for the IC50 in the test with HTT mRNA [1] (setting [7]), in the test with MYB mRNA [2] (setting [8]) and in the test with SMN2 mRNA (setting [9]) were 1 to 10 µM, 0.1 to 1 µM and 1 to 10 µM, respectively.
Regarding `Cc1nc2c(F)cc(NC(=O)c3sc(N4CCNC(C)C4)cc3F)cc2s1` (centres unmarked) [Compound 638], the IC50 was > 10 µM in the test on HTT mRNA [1] (setting [7]), > 10 µM in the test on MYB mRNA [2] (setting [8]) and < 0.1 µM with SMN2 mRNA (setting [9]).
In the case of `Cc1cn2cc(NC(=O)c3sc(C4CCNCC4)c(C)c3F)cc(F)c2n1` [Compound 649], the results for the IC50 in the test with HTT mRNA [1] (setting [7]), with MYB mRNA [2] (setting [8]) and in the test with SMN2 mRNA (setting [9]) were 0.1 to 1 µM, 0.1 to 1 µM and 1 to 10 µM, respectively.
For the compound `Cc1cn2cc(NC(=O)c3sc(C4CCNCC4)cc3F)cc(F)c2n1` [Compound 650], the IC50 was 1 to 10 µM with HTT mRNA [1] (decrease in CJ mRNA levels, read-out: HTT IC50); 0.1 to 1 µM in the test with MYB mRNA [2] (decrease in CJ mRNA levels, read-out: MYB IC50); > 10 µM in the test on SMN2 mRNA (decrease in CJ mRNA levels, read-out: SMN2 IC50).
